Values quoted from earlier work in patent US20050256112A1, “Combination of atypical antipsychotics and 5HT-1B receptor antagonists” (Pfizer Inc, priority 2004, published 2005).
Values belong to the compound of their own block, whether it stands above or below them.

Key:
[1] = background statement
[2] = test system: white blood cell counts; conditions: background statement
[3] = in some mammals; background statement

Compound: Cc1nc2n(c(=O)c1CCN1CCC(c3noc4cc(F)ccc34)CC1)CCCC2 [risperidone, 3-[2-[4-(6-fluoro-1,2-benzisoxazol-3-yl)piperidino]ethyl]-2-methyl-6,7,8,9-tetrahydro-4H-pyrido-[1,2-a]pyrimidin-4-one]
weight gain (in words) [1]: minimal
effect on white blood cell count [2]: remains unaffected

Compound: Cc1cc2c(s1)Nc1ccccc1N=C2N1CCN(C)CC1 [Olanzapine, 2-methyl-4-(4-methyl-1-piperazinyl)-10H-thieno [2,3-b][1,5] benzodiazepine]
weight gain ([1]; in some cases): up to 1 pound per week

cataract formation [3]: cause cataract formation
Compound: OCCOCCN1CCN(C2=Nc3ccccc3Sc3ccccc32)CC1 [Quetiapine, 5-[2-(4-dibenzo[b,f][1,4]thiazepin-11-yl-1-piperazinyl)ethyoxy]ethanol]
